Source: ChEMBL document CHEMBL5143532, “Discovery of GCC5694A: A potent and selective sodium glucose co-transporter 2 inhibitor for the treatment of type 2 diabetes” (Bioorg Med Chem Lett, 2022)
Activity calls are given as the source filed them. The rule behind the calls is not given here.

How the values were obtained:
[1] = target: T1, Sodium/glucose cotransporter 2 (Homo sapiens, UniProt P31639); test: Inhibition of human SGLT2 expressed in CHO cells by methyl-alpha-D-glucopyranoside assay; type: cell-based
T1 sequence (P31639 whole entry): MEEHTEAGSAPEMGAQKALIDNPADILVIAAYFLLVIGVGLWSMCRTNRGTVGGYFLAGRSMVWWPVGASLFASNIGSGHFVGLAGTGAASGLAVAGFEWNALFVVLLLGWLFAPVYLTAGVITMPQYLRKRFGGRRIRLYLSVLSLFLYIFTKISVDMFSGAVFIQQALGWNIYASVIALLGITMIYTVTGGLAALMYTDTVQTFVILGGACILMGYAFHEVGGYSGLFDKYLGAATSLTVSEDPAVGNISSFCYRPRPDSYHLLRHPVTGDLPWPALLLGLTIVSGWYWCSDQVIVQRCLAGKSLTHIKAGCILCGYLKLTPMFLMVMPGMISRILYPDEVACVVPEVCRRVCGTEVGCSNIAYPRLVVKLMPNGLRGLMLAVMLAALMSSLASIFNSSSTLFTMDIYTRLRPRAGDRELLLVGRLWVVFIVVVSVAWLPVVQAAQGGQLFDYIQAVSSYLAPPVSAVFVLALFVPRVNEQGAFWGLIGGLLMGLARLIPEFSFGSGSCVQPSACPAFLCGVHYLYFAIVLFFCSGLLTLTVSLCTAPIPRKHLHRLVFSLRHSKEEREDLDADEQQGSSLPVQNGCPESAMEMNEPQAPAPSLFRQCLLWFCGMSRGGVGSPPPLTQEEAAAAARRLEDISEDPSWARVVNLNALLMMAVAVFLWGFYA

[2] = Metabolic stability in mouse by LC-MS/MS analysis; type: ADME; conditions: read-out: Stability
[3] = Selectivity index, ratio of IC50 for human SGLT1 expressed in CHO cells to IC50 for human SGLT2 expressed in CHO cells; type: cell-based
[4] = target: T2, Sodium/glucose cotransporter 1 (Homo sapiens, UniProt P13866); test: Inhibition of human SGLT1 expressed in CHO cells by methyl-alpha-D-glucopyranoside assay; type: cell-based
T2 sequence (P13866 whole entry): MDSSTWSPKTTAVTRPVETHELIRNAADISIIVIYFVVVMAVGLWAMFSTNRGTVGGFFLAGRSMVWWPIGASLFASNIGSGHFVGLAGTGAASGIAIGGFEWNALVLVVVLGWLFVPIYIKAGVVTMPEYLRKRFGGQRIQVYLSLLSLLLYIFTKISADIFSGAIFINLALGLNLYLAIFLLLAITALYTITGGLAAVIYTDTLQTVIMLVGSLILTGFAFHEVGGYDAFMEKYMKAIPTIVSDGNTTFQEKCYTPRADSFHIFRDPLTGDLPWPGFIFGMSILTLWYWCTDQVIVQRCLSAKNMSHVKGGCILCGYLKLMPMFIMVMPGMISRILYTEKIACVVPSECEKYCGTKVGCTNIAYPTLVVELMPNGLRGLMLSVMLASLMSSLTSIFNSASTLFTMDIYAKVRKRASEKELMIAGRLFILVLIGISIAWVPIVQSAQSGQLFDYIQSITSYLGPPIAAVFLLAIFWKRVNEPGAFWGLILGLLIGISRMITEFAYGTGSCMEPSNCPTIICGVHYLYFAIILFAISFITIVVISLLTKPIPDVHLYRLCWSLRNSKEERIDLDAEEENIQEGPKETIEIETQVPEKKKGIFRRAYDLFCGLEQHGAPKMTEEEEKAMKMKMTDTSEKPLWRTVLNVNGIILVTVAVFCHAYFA

[5] = Terminal elimination half life in Sprague-Dawley rat at 1 mg/kg, iv; type: ADME, organism-based; conditions: in vivo, read-out: beta t1/2 (converted)
[6] = Tmax in Sprague-Dawley rat at 1 mg/kg, iv; type: ADME, organism-based; conditions: in vivo
[7] = Cmax in Sprague-Dawley rat at 1 mg/kg, iv; type: ADME, organism-based; set-up: dose 1 mg/kg, route iv; conditions: in vivo
[8] = Tmax in Sprague-Dawley rat at 5 mg/kg, po; type: ADME, organism-based; conditions: in vivo
[9] = AUCinfinity in Sprague-Dawley rat at 1 mg/kg, iv; type: ADME, organism-based; set-up: time infinity, dose 1 mg/kg, route iv; conditions: in vivo
[10] = Oral bioavailability in Sprague-Dawley rat at 5 mg/kg; type: ADME, organism-based; conditions: in vivo
[11] = AUCinfinity in Sprague-Dawley rat at 5 mg/kg, po; type: ADME, organism-based; set-up: time infinity, dose 5 mg/kg, route po; conditions: in vivo
[12] = system: Mus musculus; test: Antidiabetic activity in type 2 diabetic db/db mouse assessed as decrease in hemoglobin A1c level at 0.05 to 0.5 mg/kg for 5 weeks; type: functional, organism-based; conditions: dose 0.05-0.5 mg/kg
[13] = system: Rattus norvegicus; test: Antidiabetic activity in STZ-induced rat model of type 1 diabetes assessed as decrease in blood glucose level at 0.05 to 0.5 mg/kg for 5 weeks; type: functional, organism-based; conditions: dose 0.05-0.5 mg/kg
[14] = system: Rattus norvegicus; test: Antidiabetic activity in STZ-induced rat model of type 1 diabetes assessed as decrease in hemoglobin A1c level at 0.05 to 0.5 mg/kg for 5 weeks; type: functional, organism-based; conditions: dose 0.05-0.5 mg/kg
[15] = Cmax in Sprague-Dawley rat at 5 mg/kg, po; type: ADME, organism-based; set-up: dose 5 mg/kg, route po; conditions: in vivo
[16] = Terminal elimination half life in Sprague-Dawley rat at 5 mg/kg, po; type: ADME, organism-based; conditions: in vivo, read-out: beta t1/2 (converted)
[17] = system: Mus musculus; test: Antidiabetic activity in type 2 diabetic db/db mouse assessed as decrease in blood glucose level at 0.05 to 0.5 mg/kg for 5 weeks; type: functional, organism-based; conditions: dose 0.05-0.5 mg/kg
[18] = system: Rattus norvegicus; test: Increase in urinary glucose excretion in oral-dosed normal Sprague-Dawley rat; type: functional, organism-based; conditions: Urine, dose 0.1-1 mg/kg

SMILES | half-life [2] [min] | Ratio IC50 [3] | IC50 [4] [nM] | other results
Cc1ccc(Cc2cc([C@@H]3O[C@H](CO)[C@@H](O)[C@H](O)[C@H]3O)c3c(c2Cl)OCC3)cc1 | – | – | – | IC50 [1]: 1.44 nM
COc1ccc(Cc2cc([C@@H]3O[C@H](CO)[C@@H](O)[C@H](O)[C@H]3O)c3c(c2C)CCC3)cc1 | 20.3 | – | – | –
COc1ccc(Cc2cc([C@@H]3O[C@H](CO)[C@@H](O)[C@H](O)[C@H]3O)c3c(c2Cl)CCCO3)cc1 | 37.6 | 17 | – | –
CCOc1ccc(Cc2cc([C@@H]3O[C@H](CO)[C@@H](O)[C@H](O)[C@H]3O)c3c(c2Cl)OCC3)cc1 | 111 | 1410 | 2140 | –
CCCc1ccc(Cc2cc([C@@H]3O[C@H](CO)[C@@H](O)[C@H](O)[C@H]3O)c3c(c2Cl)OCC3)cc1 | – | 1170 | 1370 | –
COc1ccc(Cc2cc([C@@H]3O[C@H](CO)[C@@H](O)[C@H](O)[C@H]3O)c3c(c2Cl)CCC3)cc1 | 30.9 | – | – | –
COc1ccc(Cc2cc([C@@H]3O[C@H](CO)[C@@H](O)[C@H](O)[C@H]3O)c3c(c2Cl)CCO3)cc1 | 42.5 | 20 | – | –
OC[C@H]1O[C@@H](c2cc(Cc3ccc(C4CCCC4)cc3)c(Cl)c3c2CCO3)[C@H](O)[C@@H](O)[C@@H]1O | – | 8560 | 9930 | –
CCCOc1ccc(Cc2cc([C@@H]3O[C@H](CO)[C@@H](O)[C@H](O)[C@H]3O)c3c(c2Cl)OCC3)cc1 | – | 5150 | 6280 | –
COc1ccc(Cc2cc3c(c([C@@H]4O[C@H](CO)[C@@H](O)[C@H](O)[C@H]4O)c2)CCC3)cc1 | – | – | – | IC50 [1]: 7.44 nM
CCOc1ccc(Cc2cc([C@@H]3O[C@H](CO)[C@@H](O)[C@H](O)[C@H]3O)ccc2Cl)cc1 [DAPAGLIFLOZIN] | – | – | – | half-life [5]: 174 min; Tmax [6]: 4.8 min; Cmax [7]: 1300 ng/mL; Tmax [8]: 40.2 min; AUC(0-inf) [9]: 3010 ng·h/mL; bioavailability [10]: 88.4%; AUC(0-inf) [11]: 13300 ng·h/mL
CCc1ccc(Cc2cc([C@@H]3O[C@H](CO)[C@@H](O)[C@H](O)[C@H]3O)c3c(c2Cl)OCC3)cc1 | 44.5 | 772 | 556 | –
COc1ccc(Cc2cc([C@@H]3O[C@H](CO)[C@@H](O)[C@H](O)[C@H]3O)c3c(c2Cl)OCC3)cc1 | > 120 | 261 | 400 | –
C=Cc1ccc(Cc2cc([C@@H]3O[C@H](CO)[C@@H](O)[C@H](O)[C@H]3O)c3c(c2Cl)OCC3)cc1 | 57 | 441 | – | –
CC(C)c1ccc(Cc2cc([C@@H]3O[C@H](CO)[C@@H](O)[C@H](O)[C@H]3O)c3c(c2Cl)OCC3)cc1 | – | – | 4940 | –
OC[C@H]1O[C@@H](c2cc(Cc3ccc(C4CC4)cc3)c(Cl)c3c2CCO3)[C@H](O)[C@@H](O)[C@@H]1O [ENAVOGLIFLOZIN] | 103 | 780 | 359 | Activity [12]: Active; Activity [13]: Active; half-life [5]: 276 min; Tmax [6]: 4.8 min; Activity [14]: Active; Cmax [7]: 3300 ng/mL; Tmax [8]: 15 min; AUC(0-inf) [9]: 4180 ng·h/mL; Cmax [15]: 2340 ng/mL; half-life [16]: 294 min; Activity [17]: Active; Activity [18]: Active; bioavailability [10]: 77.4%; AUC(0-inf) [11]: 16200 ng·h/mL
COc1ccc(Cc2cc([C@@H]3O[C@H](CO)[C@@H](O)[C@H](O)[C@H]3O)c3c(c2Br)CCC3)cc1 | – | 35 | – | –
